Assay results taken from PubChem BioAssay AID624344 (Sanford-Burnham Center for Chemical Genomics, 2012).
Calls of active or inactive are those of the source. No rule for the calls is given here.

Assays:
[1] = inhibitors of PAF-induced NFkB signaling in CF airway cells, dose response, cell-based, uHTS hits, panel, cytotoxicity readout (AID 624344); details: CF bronchial epithelial cells, PAF-induced NFkB reporter inhibition; with PAF, mean of runs
Cytotoxicity = assay: as above; details: CF bronchial epithelial cells, mean of runs

| Compound | IC50 [1] | IC50 (Cytotoxicity) |
| --- | --- | --- |
| CCN1CCN(Cc2ccc(NC(=O)c3ccc(C)c(NC(=O)N4CCNC4=O)c3)cc2C(F)(F)F)CC1 | 1.62 µM | 29.2 µM |
| C[C@H]1C[C@@H](C)C(=O)[C@@H]([C@H](O)CC2CC(=O)NC(=O)C2)C1 | 0.37 µM | 8.86 µM |
| CC(C)C[C@@H](CN1CCCC1CN1C(=S)NC[C@@H]1Cc1ccc(O)cc1)N1C[C@H](Cc2ccc(O)cc2)N(CCc2ccccc2)C1=S (stereo partly drawn) | 10.9 µM | 18.2 µM |
| Cc1c(NC(=O)c2cc(-c3cccs3)nc3ccccc23)c(=O)n(-c2ccccc2)n1C | 4.08 µM | 8.78 µM |
| Cc1ccc(CNc2ncnc3ccc(-c4ccoc4C)cc23)o1 | 0.381 µM | 14.8 µM |
| COc1ccc(COc2cc(-c3cccc(OC)c3)nc3ccc(NC(=O)c4cccnc4)cc23)cc1 | 4.27 µM | 11.5 µM |
| COc1ccc(-c2cn[nH]c2-c2ccc(OCc3ccc([N+](=O)[O-])cc3)cc2O)cc1 | 4.72 µM | 31.8 µM |
| COc1cccc(NC(=O)Nc2nnc(CC(=O)Nc3ccccc3)s2)c1 | 4.89 µM | 55.8 µM (inactive) |
| CN(Cc1ccccc1)c1ncnc(N)c1[N+](=O)[O-] | 3.49 µM | 54.8 µM (inactive) |
| NC(=O)c1sc2nccc(Nc3ccccc3)c2c1N | 0.374 µM | 40 µM |
| COc1ccc(-c2cc(=O)oc3c(C)c(OC(=O)c4cccs4)ccc23)cc1 | 1.6 µM | > 79 µM (inactive) |
| Cc1nn(-c2nccs2)c2c1C(=O)CC(C)(C)C2Br (stereo not drawn) | 5.11 µM | 38.8 µM |
| CCOC(=O)N1CCC(NC(=O)c2ccc3c(c2)N=C(C)c2c(C)ccc(C)c2S3)CC1 | 11 µM | 41.4 µM |
| CC1(O)CC(c2ccc(Cl)cc2)=NN1C(=O)c1ccc(Cl)cc1 (stereo not drawn) | 5.49 µM | 14 µM |
| ON=C1c2ccccc2-c2ccccc21 | 19.5 µM | 63 µM (inactive) |
| O=c1[nH]c2ccccc2n1C1CCN(C(c2cc3ccccc3o2)c2nnnn2-c2ccc3c(c2)OCCO3)CC1 (stereo not drawn) | 3.2 µM | 10.2 µM |
| O=C(c1nnsc1S(=O)c1ccc(Cl)cc1)N1CCOCC1 (stereo not drawn) | 1.87 µM | 10.7 µM |
| NC(=O)c1sc2nc3c(c(-c4ccco4)c2c1N)CCCC3 | 2.73 µM | 44.5 µM |
| C[C@H](O)[C@@H]1CN2CCc3c([nH]c4ccc(-c5ccc6c(c5)OCO6)cc34)[C@@H]2C[C@@H]1N(C)C(=O)Nc1ccc(F)cc1 | 9.85 µM | 29 µM |
| Cc1cccc(NC(=O)Nc2ccc(C#N)cc2)n1 | 1.78 µM | 20.6 µM |
| Cc1[nH]nc2nc(SCC(=O)NCCC3=CCCCC3)n(-c3ccc(Br)cc3)c(=N)c12 | 8.27 µM | 6.73 µM |

| Compound | IC50 [1] | IC50 (Cytotoxicity) |
| --- | --- | --- |
| COc1cc(OC)cc(C(=O)N[C@H](C(=O)Nc2nc3ccccc3[nH]2)C(C)C)c1 | inactive | 41.1 µM |
| NC(c1csc(NC(=O)Nc2cccc(Cl)c2)n1)c1ccccc1Cl (stereo not drawn) | 7.54 µM | 21.7 µM |
| C[C@@H]1CN([C@H](C)CO)C(=O)c2cc(NC(=O)Nc3ccc(C(F)(F)F)cc3)ccc2O[C@H]1CN(C)S(=O)(=O)c1ccc(Cl)cc1 | 14.1 µM | > 79 µM (inactive) |
| Cc1cnc(NC(=O)CCCc2nc3ccccc3s2)s1 | 4.23 µM | 44.5 µM |
| CC(=O)OCCN1c2ccccc2Sc2cnccc21 | 4.33 µM | 63.5 µM (inactive) |
| O=C(Nc1ccc(F)cc1)Nc1ccc(N2CCCC2)c(S(=O)(=O)Nc2ccccc2Cl)c1 | 7.2 µM | 42.5 µM |
| CN(C)CCCN(C(=O)CCOc1ccccc1)c1nc2ccc(F)cc2s1 | 2.53 µM | 12.7 µM |
| COc1ccc(-n2nc(C(=O)NCC(=O)Nc3cc(OC)c(OC)c(OC)c3)c3ccccc3c2=O)cc1Cl | 1.61 µM | 23.1 µM |
| O=C(NCCCSc1ccccc1)c1cc(Cl)ccc1O | 5.03 µM | 7.97 µM |
| COc1ccc(NC(=O)c2cc3c(-c4ccc(OC)c(OC)c4)nn(C)c3s2)cc1OC | 6.06 µM | 5.55 µM |
| CCOC(=O)c1c(C)cc2c(CO)n[nH]c(=O)c2c1C | 6.83 µM | 62.8 µM (inactive) |
| Fc1ccc(Nc2ccnc(Nc3ccc(F)cc3)n2)cc1 | 7.91 µM | 14 µM |
| C#CCN(C[C@@H]1[C@@H](OC(=O)NC2CC2)[C@@H](OC(=O)NC2CC2)Cn2c(=O)ccc(=O)n21)S(=O)(=O)c1ccc(C)cc1 | 2.73 µM | 19.2 µM |
| CC1C(c2ccccc2)OCCN1C(=S)Nc1ccc(S(=O)(=O)N2CCCCC2)cc1 (stereo not drawn) | 9.52 µM | 56.5 µM (inactive) |
| COc1ccc(N(Cc2cc(=O)[nH]c3ccccc23)C(=O)CCl)cc1 | 2.89 µM | 4.29 µM |
| Cc1ccc(C(=O)c2cc([N+](=O)[O-])ccc2N2CCCCC2)c(C)c1 | 6.86 µM | > 79 µM (inactive) |
| c1cncc(CNc2ncnc3ccc(-c4ccoc4)cc23)c1 | 1.39 µM | 50.1 µM (inactive) |
| CCCn1c(-c2nonc2N)nc2ccccc21 | 4.28 µM | 31.6 µM |
| Cc1ccc(NC(=O)Nc2nnc(-c3ccncc3)s2)cc1C | 3.46 µM | 9.39 µM |
| Cc1ccc(S(=O)(=O)Nc2ccc3cc([N+](=O)[O-])ccc3c2[N+](=O)[O-])cc1 | 3.17 µM | 4.15 µM |
| Cc1cc(C)c(C#N)c(SCC(=O)c2ccc(Cl)cc2Cl)n1 | 6.02 µM | 14.8 µM |

| Compound | IC50 [1] | IC50 (Cytotoxicity) |
| --- | --- | --- |
| Cc1cccc(N2CCN(C(=O)c3[nH]c(C(F)(F)F)nc3-c3ccccc3)CC2)c1C | 17.8 µM | > 79 µM (inactive) |
| O=[N+]([O-])c1ccc(Oc2ccc(F)cc2Br)c2ccncc12 | 3.97 µM | 38.6 µM |
| Cc1ccc(Sc2c(C=O)c3ccccc3n2C)cc1 | 2 µM | 18 µM |
| COc1ccc2cc3c(N)nn(C(=O)Cc4ccccc4OC)c3nc2c1 | 2.67 µM | 47.4 µM |
| COc1ccc(Nc2nc(-c3ccccc3)nc3ccccc23)cc1S(=O)(=O)N1CCOCC1 | 4.84 µM | 7.17 µM |
| O=c1cc(-c2ccccc2Cl)oc2c([N+](=O)[O-])c(O)cc(O)c12 | 0.235 µM | 5.36 µM |
| Cc1ccc(CCC(=O)Nc2ncc(Cc3cc(Cl)ccc3Cl)s2)o1 | 19.2 µM | 13.2 µM |
| Nc1nc(N)nc(-c2cc(O)ccc2O)n1 | 3.31 µM | 21.2 µM |
| COC1(OC)C=CC(=O)C=C1NC(=O)c1ccccc1OC(C)=O | 4.11 µM | 15.2 µM |
| COc1cccc(-c2ccc3ncnc(NCc4cccs4)c3c2)c1 | 2.91 µM | 13.6 µM |
| O=C(c1ccc(O)c(Br)c1)c1cc(Br)ccc1O | 4.08 µM | 16.4 µM |
| CC1CCc2sc3ncnc(N4CCOCC4)c3c2C1 (stereo not drawn) | 5.9 µM | 7.61 µM |
| Cc1cccc(C(=O)N2[C@@H](C(C)C)COc3cc(Br)ccc3S2(=O)=O)c1 | 11.1 µM | 37.8 µM |
| CN(C)CCCN(C(=O)CCOc1ccccc1)c1nc2c(F)cccc2s1 | 5.63 µM | 24.6 µM |
| CCCc1nc(Cl)c(C#N)c2c1CCCC2 | 4.3 µM | 73 µM (inactive) |
| O=C(Oc1cc2oc(=O)cc(-c3ccccc3)c2cc1Cl)C1CCCCC1 | 2.22 µM | 30.6 µM |
| OCCN1CCN(c2ncnc3ccc(Br)cc23)CC1 | 2.44 µM | 55.7 µM (inactive) |
| Cc1ccc(C(C(=O)NCc2ccccc2)N(Cc2cccs2)C(=O)c2ccc3c(c2)OCCO3)cc1 (stereo not drawn) | 3.04 µM | 3.48 µM |
| Cc1nc(N2CCC(C(N)=O)CC2)c2c(-c3cccs3)csc2n1 | 3.23 µM | 33.5 µM |
| CCN(CC)S(=O)(=O)c1ccc(NC(=O)Nc2cccc(C(F)(F)F)c2)cc1 | 6.03 µM | 12.2 µM |
| COc1cc2c(Cc3ccccc3)cncc2cc1O | 6.42 µM | 36.8 µM |

| Compound | IC50 [1] | IC50 (Cytotoxicity) |
| --- | --- | --- |
| O=[N+]([O-])c1ccc(O)c(C2CCCCC2)c1 | 2.04 µM | 3.28 µM |
| COc1ccc2ncn(-c3ccccc3)c2c1 | 5.47 µM | 60.6 µM (inactive) |
| COc1ccc(OC)c(C2CC(=O)c3c([nH]c(C(=O)OC(C)C)c3C)C2)c1 (stereo not drawn) | inactive | > 79 µM (inactive) |
| O=C(Nc1cccc(Cl)c1)Nc1cc(S(=O)(=O)N2CCCCC2)ccc1Cl | 6.4 µM | 9.07 µM |
| CC(=O)c1cccc(NC(=O)COC(=O)c2ccc(S(C)(=O)=O)c([N+](=O)[O-])c2)c1 | 5.26 µM | 12.6 µM |
| Cn1c(Sc2ccc(Cl)cc2)c(C=O)c2ccccc21 | 2.48 µM | 17.3 µM |
| Cc1c([N+](=O)[O-])c2ccc(O)cc2n1-c1ccccc1 | 0.851 µM | 26.2 µM |
| O=C1OC(c2ccccc2)(c2cc(Br)ccc2O)c2ccccc21 (stereo not drawn) | 6.65 µM | 42.4 µM |
| COCCN1Cc2cccc(C(=O)Nc3cccc(-c4nc5ccccc5[nH]4)c3)c2C1=O | 7.9 µM | 11.1 µM |
| CC1(C)CC(=O)C(C2C3=C(CC(C)(C)CC3=O)Oc3c(Br)cc(Br)cc32)=C(O)C1 (stereo not drawn) | 6.19 µM | 15.1 µM |
| O=C(c1cc([N+](=O)[O-])ccc1N1CCOCC1)N1CCN(c2ccccc2)CC1 | inactive | > 79 µM (inactive) |
| CC1=C(C(=O)OCc2ccc3c(c2)OCO3)C(c2cccc([N+](=O)[O-])c2)NC(=O)N1 (stereo not drawn) | 2.71 µM | > 79 µM (inactive) |
| O=C(NNC(=S)Nc1cccc(C(F)(F)F)c1)c1cccc(Cl)c1 | 4.81 µM | 9.54 µM |
| CC(C)=CCc1c(O)cc(O)c2c1OC(c1ccc(O)cc1)CC2=O (stereo not drawn) | 4.52 µM | 43.6 µM |
| Cc1cccc(C)c1NS(=O)(=O)c1ccc(-c2cnc(C3CC3)o2)cc1 | 11.8 µM | 35 µM |
| Fc1ccccc1-c1csc(=Nc2cccnc2)n1CCCn1ccnc1 | 5.92 µM | 48.4 µM |
| C=C(C)[C@@H]1CCC2(C(=O)O)CC[C@]3(C)[C@H](CC[C@@H]4[C@@]5(C)CCC(=O)C(C)(C)[C@@H]5CC[C@]43C)[C@@H]12 (stereo partly drawn) | 8.27 µM | 12.9 µM |
| O=S1(=O)CC=C(CSC(=S)NC2CCS(=O)(=O)C2)C1 (stereo not drawn) | 3.05 µM | – |
| O=C(N/N=C/c1ccccc1Cl)c1[nH]c2ccc(Br)cc2c1-c1ccccc1 | 10.7 µM | – |
| O=C1C=C(NC2=CC3OC(c4ccccc4)OCC3OC2=O)CCC1 (stereo not drawn) | 3.74 µM | – |
